Measurements reported in patent US11633459B2, “GIP derivatives and uses thereof” (priority 2018, dated 2023).
*1 amine or outer side, *2 acyl side, *3 side chain or, on linkers, in order; H or OH if unused. Where a SMILES comes first, the peptide text is derived from it. Where no end group is shown, it is not given here. Side-chain parts run from the residue outwards. [ ]: non-standard residue; d: D form. The star is where a group is joined. X1 = O=C(O)CCCCCCCCCCCCCCCCCCC(=O)NCC1CCC(C(=O)*)CC1; C18 diacid = O=C(O)CCCCCCCCCCCCCCCCC(=O)*; γGlu = O=C(O)[C@H](CCC(=O)[*:2])N[*:1]; Nle = CCCC[C@H](N)C(=O)O; AEEA = NCCOCCOCC(=O)O; Aib = CC(C)(N)C(=O)O

Molecular target: T1, human GIP receptor (Homo sapiens, UniProt P48546)
T1 construct: expressed in transfected cells; host or cells: BHK cells (parent line BHKTS13), clone BHK CRE luc2P hGIPR clone #5
T1 sequence (P48546 22-466): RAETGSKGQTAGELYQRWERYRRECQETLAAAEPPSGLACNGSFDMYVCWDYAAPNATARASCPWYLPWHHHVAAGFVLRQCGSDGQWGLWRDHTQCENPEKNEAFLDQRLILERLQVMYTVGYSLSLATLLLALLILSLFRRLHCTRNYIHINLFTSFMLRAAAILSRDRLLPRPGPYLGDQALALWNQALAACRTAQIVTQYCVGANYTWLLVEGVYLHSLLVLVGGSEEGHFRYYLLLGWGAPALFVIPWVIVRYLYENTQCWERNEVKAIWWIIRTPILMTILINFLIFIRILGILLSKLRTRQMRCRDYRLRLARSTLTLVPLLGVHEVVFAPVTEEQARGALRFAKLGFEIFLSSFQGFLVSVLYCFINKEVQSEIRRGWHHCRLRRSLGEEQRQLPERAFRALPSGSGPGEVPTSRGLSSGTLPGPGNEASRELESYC
Assay: In vitro potency, CRE luciferase reporter gene assay, whole BHK cells expressing human GIP receptor
Format: cell-based
Settings: 0.2% HSA
Protocol: In Vitro Potency (CRE Luciferase; Whole Cells)
The in vitro potency is the measure of human GIP, GLP-1 or glucagon receptor activation, respectively, in a whole cell assay.
In vitro potency was determined by measuring the response of the human GIP, GLP-1 or glucagon receptor in a reporter gene assay in individual cell lines. […] When the respective receptor is activated it results in the production of cAMP, which in turn results in the luciferase protein being expressed. When assay incubation is completed the luciferase substrate (luciferin) is added and the enzyme converts luciferin to oxyluciferin to produce bioluminescence. The luminescence is measured as the readout for the assay.
The cells were derived from a clone containing the CRE luciferase element and were established by further transfection with the respective receptor to obtain the current clone.
The cells were cultured at 5% CO2 in Cell Culture Medium. They were aliquoted and stored in liquid nitrogen. The cells were kept in passage and were seeded out the day before each assay.
The Assay Buffer consisted of 1% ovalbumin and 0.1% Pluronic F-68 in Assay Medium with the addition of human serum albumin at twice the indicated concentrations.
1) Cells were plated at 5000 cells/well and incubated overnight.
2) Cells were washed three times in PBS.
3) Assay Medium (50 μl aliquot) with or without serum albumin was added to each well in the assay plate.
4) Stocks of the test compounds and reference compounds were diluted to a concentration of 0.2 μM in Assay Buffer. […] 8) The cells were washed three times with PBS plus some liquid in each well. 9) A 100 μl aliquot of steadylite plus reagent was added to each well of the assay plate (reagent was light sensitive). 10) Each assay plate was covered with aluminum foil to protect it from light and shaken for 30 min at room temperature. 11) Each assay plate was read in a microtiter plate reader. Calculations and Results
The data from the microtiter plate reader was transferred to GraphPad Prism software. The software performs a non-linear regression (log(agonist) vs response).
A minimum of two replicates was measured for each sample. The reported values are averages of the replicates.

| Molecule | EC50 |
| --- | --- |
| CCCC[C@H](NC(=O)[C@H](C)NC(=O)[C@@H](NC(=O)[C@H](CO)NC(=O)[C@H](Cc1ccc(O)cc1)NC(=O)[C@H](CC(=O)O)NC(=O)[C@H](CO)NC(=O)[C@@H](NC(=O)[C@H](Cc1ccccc1)NC(=O)[C@@H](NC(=O)CNC(=O)[C@H](CCC(=O)O)NC(=O)C(C)(C)NC(=O)[C@@H](N)Cc1ccc(O)cc1)[C@@H](C)O)[C@@H](C)CC)[C@@H](C)CC)C(=O)N[C@@H](CC(=O)O)C(=O)N[C@@H](C)C(=O)N[C@H](C(=O)N[C@@H](CCCNC(=N)N)C(=O)N[C@@H](CCC(N)=O)C(=O)N[C@@H](CCC(N)=O)C(=O)N[C@@H](CC(=O)O)C(=O)N[C@@H](Cc1ccccc1)C(=O)N[C@H](C(=O)N[C@@H](CCCCNC(=O)CC[C@H](NC(=O)CC[C@H](NC(=O)CC[C@H](NC(=O)C1CCC(CNC(=O)CCCCCCCCCCCCCCCCCCC(=O)O)CC1)C(=O)O)C(=O)O)C(=O)O)C(=O)N[C@@H](Cc1c[nH]c2ccccc12)C(=O)N[C@@H](CC(C)C)C(=O)N[C@@H](CC(C)C)C(=O)N[C@@H](C)C(=O)N[C@@H](CCC(N)=O)C(=O)N[C@@H](CCCCN)C(=O)NCC(=O)O)C(C)C)[C@@H](C)CC (stereo partly drawn) [Compound 14, N{Epsilon-24}-[(4S)-4-carboxy-4-[[(4S)-4-carboxy-4-[[(4S)-4-carboxy-4-[[4-[(19-carboxynonadecanoylamino)methyl]cyclohexanecarbonyl]amino]butanoyl]amino]-butanoyl]amino]butanoyl]-[Aib2,Nle14,Ala16,Arg18,Lys24]-hGIP(1-31)] (H-Y[Aib]EGTFISDYSIA[Nle]DAIRQQDFVK([γGlu-γGlu-γGlu-X1])WLLAQKG-OH) | 0.266 nM |
| CCCC[C@H](NC(=O)[C@H](C)NC(=O)[C@@H](NC(=O)[C@H](CO)NC(=O)[C@H](Cc1ccc(O)cc1)NC(=O)[C@H](CC(=O)O)NC(=O)[C@H](CO)NC(=O)[C@@H](NC(=O)[C@H](Cc1ccccc1)NC(=O)[C@@H](NC(=O)CNC(=O)[C@H](CCC(=O)O)NC(=O)C(C)(C)NC(=O)[C@@H](N)Cc1ccc(O)cc1)[C@@H](C)O)[C@@H](C)CC)[C@@H](C)CC)C(=O)N[C@@H](CC(=O)O)C(=O)N[C@@H](CCCCN)C(=O)N[C@H](C(=O)N[C@@H](Cc1c[nH]cn1)C(=O)N[C@@H](CCC(N)=O)C(=O)N[C@@H](CCC(=O)O)C(=O)N[C@@H](CC(=O)O)C(=O)N[C@@H](Cc1ccccc1)C(=O)N[C@H](C(=O)N[C@@H](CCCCNC(=O)CC[C@H](NC(=O)CC[C@H](NC(=O)CC[C@H](NC(=O)CC[C@H](NC(=O)C1CCC(CNC(=O)CCCCCCCCCCCCCCCCCCC(=O)O)CC1)C(=O)O)C(=O)O)C(=O)O)C(=O)O)C(=O)N[C@@H](Cc1c[nH]c2ccccc12)C(=O)N[C@@H](CC(C)C)C(=O)N[C@@H](CC(C)C)C(=O)N[C@@H](C)C(=O)N[C@@H](CCC(N)=O)C(=O)N[C@@H](CCCCN)C(=O)NCC(=O)O)C(C)C)[C@@H](C)CC (stereo partly drawn) [Compound 21, N{Epsilon-24}-[(4S)-4-carboxy-4-[[(4S)-4-carboxy-4-[[(4S)-4-carboxy-4-[[(4S)-4-carboxy-4-[[4-[(19-carboxynonadecanoylamino)methyl]cyclohexanecarbonyl]amino]butanoyl]-amino]butanoyl]amino]butanoyl]amino]butanoyl]-[Aib2,Nle14,Glu20,Lys24]-hGIP(1-31)] (H-Y[Aib]EGTFISDYSIA[Nle]DKIHQEDFVK([γGlu-γGlu-γGlu-γGlu-X1])WLLAQKG-OH) | 0.81 nM |
| CCCC[C@H](NC(=O)[C@H](C)NC(=O)[C@@H](NC(=O)[C@H](CO)NC(=O)[C@H](Cc1ccc(O)cc1)NC(=O)[C@H](CC(=O)O)NC(=O)[C@H](CO)NC(=O)[C@@H](NC(=O)[C@H](Cc1ccccc1)NC(=O)[C@@H](NC(=O)CNC(=O)[C@H](CCC(=O)O)NC(=O)C(C)(C)NC(=O)[C@@H](N)Cc1ccc(O)cc1)[C@@H](C)O)[C@@H](C)CC)[C@@H](C)CC)C(=O)N[C@@H](CC(=O)O)C(=O)N[C@@H](CCCCN)C(=O)N[C@H](C(=O)N[C@@H](CCCNC(=N)N)C(=O)N[C@@H](CCC(N)=O)C(=O)N[C@@H](CCC(N)=O)C(=O)N[C@@H](CC(=O)O)C(=O)N[C@@H](Cc1ccccc1)C(=O)N[C@H](C(=O)N[C@@H](CCCCNC(=O)COCCOCCNC(=O)COCCOCCNC(=O)CC[C@H](NC(=O)C1CCC(CNC(=O)CCCCCCCCCCCCCCCCCCC(=O)O)CC1)C(=O)O)C(=O)N[C@@H](Cc1c[nH]c2ccccc12)C(=O)N[C@@H](CC(C)C)C(=O)N[C@@H](CC(C)C)C(=O)N[C@@H](C)C(=O)N[C@@H](CCC(N)=O)C(=O)N[C@@H](CCCCN)C(=O)NCC(=O)N[C@@H](CCCCN)C(=O)N[C@@H](CCC(=O)O)C(=O)N[C@@H](CCC(=O)O)C(=O)N[C@@H](CC(=O)O)C(=O)N[C@@H](Cc1c[nH]c2ccccc12)C(=O)N[C@@H](CCCCN)C(=O)N[C@@H](Cc1c[nH]cn1)C(=O)N[C@@H](CC(N)=O)C(=O)N[C@H](C(=O)N[C@H](C(=O)N[C@@H](CCC(N)=O)C(=O)O)[C@@H](C)O)[C@@H](C)CC)C(C)C)[C@@H](C)CC (stereo partly drawn) [Compound 41, N{Epsilon-24}-[2-[2-[2-[[2-[2-[2-[[(4S)-4-carboxy-4-[[4-[(19-carboxynonadecanoyl-amino)methyl]cyclohexanecarbonyl]amino]butanoyl]amino]ethoxy]ethoxy]acetyl]amino]ethoxy]ethoxy]acetyl]-[Aib2,Nle14,Arg18,Lys24,Glu33,Glu34]-hGIP] | 0.014 nM |
| CCCC[C@H](NC(=O)[C@H](C)NC(=O)[C@@H](NC(=O)[C@H](CO)NC(=O)[C@H](Cc1ccc(O)cc1)NC(=O)[C@H](CC(=O)O)NC(=O)[C@H](CO)NC(=O)[C@@H](NC(=O)[C@H](Cc1ccccc1)NC(=O)[C@@H](NC(=O)CNC(=O)[C@H](CCC(=O)O)NC(=O)C(C)(C)NC(=O)[C@@H](N)Cc1ccc(O)cc1)[C@@H](C)O)[C@@H](C)CC)[C@@H](C)CC)C(=O)N[C@@H](CC(=O)O)C(=O)N[C@@H](CCCCN)C(=O)N[C@H](C(=O)N[C@@H](CCCNC(=N)N)C(=O)N[C@@H](CCC(N)=O)C(=O)N[C@@H](CCC(N)=O)C(=O)N[C@@H](CC(=O)O)C(=O)N[C@@H](Cc1ccccc1)C(=O)N[C@H](C(=O)N[C@@H](CCCCNC(=O)CC[C@H](NC(=O)CC[C@H](NC(=O)CC[C@H](NC(=O)C1CCC(CNC(=O)CCCCCCCCCCCCCCCCCCC(=O)O)CC1)C(=O)O)C(=O)O)C(=O)O)C(=O)N[C@@H](Cc1c[nH]c2ccccc12)C(=O)N[C@@H](CC(C)C)C(=O)N[C@@H](CC(C)C)C(=O)N[C@@H](C)C(=O)N[C@@H](CCC(N)=O)C(=O)N[C@@H](CCCCN)C(=O)NCC(=O)N[C@@H](CCCCN)C(=O)N[C@@H](CCC(=O)O)C(=O)N[C@@H](CCC(=O)O)C(=O)N[C@@H](CC(=O)O)C(=O)N[C@@H](Cc1c[nH]c2ccccc12)C(=O)N[C@@H](CCCCN)C(=O)N[C@@H](Cc1c[nH]cn1)C(=O)N[C@@H](CC(N)=O)C(=O)N[C@H](C(=O)N[C@H](C(=O)N[C@@H](CCC(N)=O)C(=O)O)[C@@H](C)O)[C@@H](C)CC)C(C)C)[C@@H](C)CC (stereo partly drawn) [Compound 42, N{Epsilon-24}-[(4S)-4-carboxy-4-[[(4S)-4-carboxy-4-[[(4S)-4-carboxy-4-[[4-[(19-carboxynonadecanoylamino)methyl]cyclohexanecarbonyl]amino]butanoyl]amino]butanoyl]amino]butanoyl]-[Aib2,Nle14,Arg18,Lys24,Glu33,Glu34]-hGIP] | 0.022 nM |
| H-Y[Aib]EGTFISDYSIALDKIHQQDFVK([AEEA-AEEA-γGlu-C18 diacid])WLLAQKGKKNDWKHNITQ [Compound 45, N{Epsilon-24}-[2-[2-[2-[[2-[2-[2-[[(4S)-4-carboxy-4-(17-carboxyheptadecanoylamino)butanoyl]amino]ethoxy]ethoxy]acetyl]amino]ethoxy]ethoxy]acetyl]-[Aib2,Leu14,Lys24]-hGIP] | 0.056 nM |
